How the values were obtained:
[1] = molecular target: T1, human TRPM8 (Homo sapiens, UniProt Q7Z2W7); experiment: Luminescence readout assay for measuring intracellular calcium (aequorin, CHO cells expressing human TRPM8; icilin, L-menthol or cold activation); type: cell-based; details: CHO cells expressing human TRPM8, icilin activation (1 μM), aequorin luminescence; read-out: hTRPM8 IC50
T1 construct: expressed in transfected cells; host or cells: Chinese hamster ovary (CHO) cells, T-REx tetracycline-inducible expression system (Invitrogen); co-transfected with pcDNA3.1 aequorin
Method in brief: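 Activation was by 1 μM icilin, 100 μM L-menthol (test compound 2.5 min ahead) or cold buffer below 10° C (compound 1 min ahead). Calcium rise measured as aequorin luminescence in CHO cells with tetracycline-inducible human TRPM8.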

[2] = system: icilin induced wet-dog shakes; experiment: Inhibition of icilin induced shaking (wet-dog shakes) in rats; type: in vivo, male Sprague Dawley rats; details: po, rat
Description: Inhibition of Icilin Induced Shaking in Rats
Example compounds at doses ranging from 0.01 to 3 mg/kg (p.o, suspended in 5% Tween80/Oralplus or suspended in 2% HPMC-1% Tween-80 pH2.2 with MSA, 5 mL/kg) can be administered to male Sprague Dawley rats (200-300 g, Harlan, n=6-8/treatment) 2 h before icilin to assess the ability to block the spontaneous wet-dog shake phenomena induced by icilin (i.p., suspended in 100% PEG400 at 0.5 mg/kg, 1 mL/kg or p.o., suspended in 2% HPMC-1% Tween-80 at 3 mg/kg, 2.5 mL/kg). Spontaneous wet-dog shakes may be counted manually by two blinded observers or using LABORAS automation (Metris) for 30 min post-icilin. The synthesized and prophetic example compounds may be measured using these procedures and will be found to reduce the spontaneous wet dog shake phenomena induced by icilin.

T1 sequence (Q7Z2W7 whole entry): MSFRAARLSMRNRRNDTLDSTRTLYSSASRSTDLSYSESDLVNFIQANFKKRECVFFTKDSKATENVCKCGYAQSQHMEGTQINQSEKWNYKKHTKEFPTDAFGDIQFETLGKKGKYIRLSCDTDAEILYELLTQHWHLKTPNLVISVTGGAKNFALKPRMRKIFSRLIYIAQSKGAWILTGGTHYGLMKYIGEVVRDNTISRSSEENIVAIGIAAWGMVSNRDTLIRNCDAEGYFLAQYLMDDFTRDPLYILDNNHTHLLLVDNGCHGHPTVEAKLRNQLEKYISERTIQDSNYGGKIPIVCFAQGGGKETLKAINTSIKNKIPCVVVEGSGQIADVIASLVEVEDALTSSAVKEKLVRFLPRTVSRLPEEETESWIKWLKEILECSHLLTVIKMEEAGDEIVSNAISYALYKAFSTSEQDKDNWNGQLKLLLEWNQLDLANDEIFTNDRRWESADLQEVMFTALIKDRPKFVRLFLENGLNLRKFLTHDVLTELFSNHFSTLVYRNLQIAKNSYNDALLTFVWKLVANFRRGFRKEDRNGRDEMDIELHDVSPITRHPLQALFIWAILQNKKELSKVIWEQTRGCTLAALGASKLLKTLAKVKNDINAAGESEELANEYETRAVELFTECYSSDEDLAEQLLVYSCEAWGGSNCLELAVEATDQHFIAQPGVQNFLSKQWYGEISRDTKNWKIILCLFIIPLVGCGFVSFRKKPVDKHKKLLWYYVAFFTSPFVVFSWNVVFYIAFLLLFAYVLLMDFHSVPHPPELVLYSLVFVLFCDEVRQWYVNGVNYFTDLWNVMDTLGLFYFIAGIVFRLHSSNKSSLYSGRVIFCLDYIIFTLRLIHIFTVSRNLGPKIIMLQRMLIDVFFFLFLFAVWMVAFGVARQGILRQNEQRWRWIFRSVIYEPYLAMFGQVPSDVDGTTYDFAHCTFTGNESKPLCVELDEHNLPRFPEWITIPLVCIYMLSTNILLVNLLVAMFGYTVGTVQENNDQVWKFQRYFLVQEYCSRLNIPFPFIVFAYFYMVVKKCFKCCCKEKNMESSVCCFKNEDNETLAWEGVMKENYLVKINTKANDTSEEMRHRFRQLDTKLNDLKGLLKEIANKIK

Compound | IC50 [1] | inhibition in vivo at 1 mg/kg [2] | inhibition in vivo at 0.3 mg/kg ([2]; dose 0.3 mg/kg)
Nc1cc(C(=O)N[C@]2(c3ccc(OC(F)(F)F)c(F)c3)CCOc3cccnc32)ccc1C(=O)O [Example 321, (S)-2-amino-4-((4-(3-fluoro-4-(trifluoro-methoxy)phenyl)-3,4-dihydro-2H-pyrano[3,2-b]pyridin-4-yl)carbamoyl) benzoic acid] | 12 nM | 95% | 
O=C(N[C@]1(c2ccc(OC(F)(F)F)c(F)c2)CCOc2cccnc21)c1ccc(=O)[nH]c1 [Example 59, (S)—N-(4-(3-fluoro-4-(trifluoromethoxy)phenyl)-3,4-dihydro-2H-pyrano[3,2-b]pyridin-4-yl)-6-oxo-1,6-dihydropyridine-3-carboxamide] | 13 nM | 99% | 
O=C(O)c1ccc(C(=O)N[C@]2(c3ccc(OC(F)(F)F)cc3)CCOc3cccnc32)nc1 [Example 327, (S)-6-((4-(4-(trifluoro-methoxy)phenyl)-3,4-dihydro-2H-pyrano[3,2-b]pyridin-4-yl)carbamoyl) nicotinic acid] | 23 nM | 93% | 
O=C(N[C@]1(c2ccc(OC(F)(F)F)c(F)c2)CCOc2cccnc21)c1c[nH]c(=O)cn1 [Example 50, (S)-N-(4-(3-fluoro-4-(trifluoromethoxy)phenyl)-3,4-dihydro-2H-pyrano[3,2-b]pyridin-4-yl)-5-oxo-4,5-dihydropyrazine-2-carboxamide] | 8 nM | 67% | 
O=C(N[C@]1(c2ccc(OC(F)(F)F)c(F)c2)CCOc2cccnc21)c1ccc(CO)cc1 [Example 158, (S)—N-(4-(3-fluoro-4-(trifluoromethoxy)phenyl)-3,4-dihydro-2H-pyrano[3,2-b]pyridin-4-yl)-4-(hydroxymethyl)benzamide] | 6 nM | 92% | 
O=C(N[C@]1(c2ccc(C(F)(F)F)c(F)c2)CCOc2cccnc21)c1ccc(=O)[nH]c1 [Example 170, (S)-N-(4-(3-fluoro-4-(trifluoromethyl)phenyl)-3,4-dihydro-2H-pyrano[3,2-b]pyridin-4-yl)-6-oxo-1,6-dihydropyridine-3-carboxamide] | 21 nM | 90% | 
O=C(O)c1ccc(C(=O)N[C@]2(c3ccc(OC(F)(F)F)c(F)c3)CCOc3cccnc32)cc1 [Example 204, (S)-4-((4-(3-fluoro-4-(trifluoromethoxy)phenyl)-3,4-dihydro-2H-pyrano[3,2-b]pyridin-4-yl)carbamoyl) benzoic acid] | 7 nM | 98% | 
O=C(O)c1ccc(C(=O)N[C@]2(c3ccc(Cl)c(Cl)c3)CCOc3cccnc32)nc1 [Example 318, (S)-6-((4-(3,4-dichloro-phenyl)-3,4-dihydro-2H-pyrano[3,2-b]pyridin-4-yl)carbamoyl) nicotinic acid] | 25 nM | 86% | 
CCc1cc(C(=O)N[C@]2(c3ccc(OC(F)(F)F)c(F)c3)CCOc3cccnc32)ccc1C(=O)O [Example 291, (S)-2-ethyl-4-((4-(3-fluoro-4-(trifluoromethoxy)phenyl)-3,4-dihydro-2H-pyrano[3,2-b]pyridin-4-yl)carbamoyl)benzoic acid] | 15 nM | 97% | 
Cc1cc(C(=O)N[C@]2(c3ccc(OC(F)(F)F)c(F)c3)CCOc3cccnc32)ccc1C(=O)O [Example 332, (S)-4-((4-(3-fluoro-4-(trifluoromethoxy)phenyl)-3,4-dihydro-2H-pyrano[3,2-b]pyridin-4-yl)carbamoyl)-2-methylbenzoic acid] | 16 nM | 99% | 
COc1cc(C(=O)O)ccc1C(=O)N[C@]1(c2ccc(OC(F)(F)F)c(F)c2)CCOc2cccnc21 [Example 314, (S)-4-((4-(3-fluoro-4-(trifluoromethoxy)phenyl)-3,4-dihydro-2H-pyrano[3,2-b]pyridin-4-yl)carbamoyl)-3-methoxybenzoic acid] | 4 nM | 99% | 
O=C(N[C@]1(c2ccc(C(F)(F)F)cc2)CCOc2cccnc21)c1ccc2oc(=O)[nH]c2c1 [Example 61, (S)-2-oxo-N-(4-(4-(trifluoromethyl)phenyl)-3,4-dihydro-2H-pyrano[3,2-b]pyridin-4-yl)-2,3-dihydrobenzo[d]oxazole-5-carboxamide] | 6 nM | 80% | 
O=C(Nc1cncnc1)N[C@]1(c2ccc(OC(F)(F)F)c(F)c2)CCOc2cccnc21 [Example 85, (S)-1-(4-(3-fluoro-4-(trifluoromethoxy)phenyl)-3,4-dihydro-2H-pyrano[3,2-b]pyridin-4-yl)-3-(pyrimidin-5-yl)urea] | 12 nM | 72% | 

The next lines start with results.

IC50 [1] | Compound | inhibition in vivo at 1 mg/kg [2] | inhibition in vivo at 0.3 mg/kg ([2]; dose 0.3 mg/kg)
44 nM | O=C(N[C@]1(c2ccc(OC(F)(F)F)c(F)c2)CCOc2cccnc21)c1ccc(-c2noc(=O)[nH]2)cn1 [Example 283, (S)—N-(4-(3-fluoro-4-(trifluoromethoxy)phenyl)-3,4-dihydro-2H-pyrano[3,2-b]pyridin-4-yl)-5-(5-oxo-4,5-dihydro-1,2,4-oxadiazol-3-yl)picolinamide] | 78% | 
14 nM | O=C(O)c1ccc(C(=O)N[C@]2(c3ccc(C(F)(F)F)c(F)c3)CCOc3cccnc32)nc1 [Example 313, (S)-6-((4-(3-fluoro-4-(trifluoro-methyl)phenyl)-3,4-dihydro-2H-pyrano[3,2-b]pyridin-4-yl)carbamoyl) nicotinic acid] | 99% | 
28 nM | O=C(Nc1ncccn1)N[C@]1(c2ccc(OC(F)(F)F)c(F)c2)CCOc2cccnc21 [Example 83, (S)-1-(4-(3-fluoro-4-(trifluoromethoxy)phenyl)-3,4-dihydro-2H-pyrano[3,2-b]pyridin-4-yl)-3-(pyrimidin-2-yl)urea] | 59% | 
18 nM | C=Cc1cc(C(=O)N[C@]2(c3ccc(OC(F)(F)F)c(F)c3)CCOc3cccnc32)ccc1C(=O)O [Example 289, (S)-4-((4-(3-fluoro-4-(trifluoromethoxy)phenyl)-3,4-dihydro-2H-pyrano[3,2-b]pyridin-4-yl)carbamoyl)-2-vinylbenzoic acid] | 93% | 
15 nM | Cc1cc(C(=O)N[C@]2(c3ccc(OC(F)(F)F)cc3)CCOc3cccnc32)ccc1C(=O)O [Example 319, (S)-2-methyl-4-((4-(4-(trifluoro-methoxy)phenyl)-3,4-dihydro-2H-pyrano[3,2-b]pyridin-4-yl)carbamoyl) benzoic acid] |  | 75%
7 nM | O=C(N[C@]1(c2ccc(OC(F)(F)F)c(F)c2)CCOc2cccnc21)c1ccc2[nH]c(=O)oc2c1 (single isomer, unassigned) [Example 21] | 98% | 
21 nM | O=C(N[C@]1(c2ccc(OC(F)(F)F)cc2)CCOc2cccnc21)c1ccc(=O)[nH]c1 (single isomer, unassigned) [Example 58] | 97% | 
8 nM | Cc1nc(C(=O)N[C@]2(c3ccc(OC(F)(F)F)c(F)c3)CCOc3cccnc32)ccc1C(=O)O [Example 310, (S)-6-((4-(3-fluoro-4-(trifluoro-methoxy)phenyl)-3,4-dihydro-2H-pyrano[3,2-b]pyridin-4-yl)carbamoyl)-2-methylnicotinic acid] | 98% | 
14 nM | O=C(O)c1ccc(C(=O)N[C@]2(c3ccc(OC(F)(F)F)c(F)c3)CCOc3cccnc32)nc1 [Example 75] | 99% | 
33 nM | O=C(O)c1ccc(C(=O)N[C@]2(c3ccc(C(F)(F)F)cc3)CCOc3cccnc32)nc1 [Example 326, (S)-6-((4-(4-(trifluoro-methyl)phenyl)-3,4-dihydro-2H-pyrano[3,2-b]pyridin-4-yl)carbamoyl) nicotinic acid] | 98% | 
16 nM | N#Cc1ccc(-c2ccc([C@@]3(NC(=O)c4ccc5oc(=O)[nH]c5c4)CCOc4cccnc43)cc2)cc1 [Example 155, (S)—N-(4-(4′-cyano-[1,1′-biphenyl]-4-yl)-3,4-dihydro-2H-pyrano[3,2-b]pyridin-4-yl)-2-oxo-2,3-dihydrobenzo[d]oxazole-5-carboxamide 2,2,2-trifluoroacetate] | 60% | 

Reference: patent publication US20150031668A1, “CHROMAN DERIVATIVES AS TRPM8 INHIBITORS” (AMGEN INC., priority 2013, published 2015)
